This assay deals with T1, 11β-HSD1 (Homo sapiens, UniProt P28845).
T1 construct: detecting cortisol generated from cortisterone by human liver microsomes; from tissue; host or cells: human liver microsomes
The assay is described as follows: In vitro inhibition of 11β-HSD1, HTRF detection of cortisol generated from cortisone by human liver microsomes. Format: biochemical. Conditions: 11β-HSD IC50 (nM), 1 hour at 37° C., pH 6.0, NADPH 200 μM, cortisone 80 nM, inhibition relative to carbenoxolone signal. Summed up:
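Inhibition expressed against the carbenoxolone signal and fitted to IC50 curves. Readout: HTRF competition between microsomal cortisol and XL665-labelled cortisol for Eu-cryptate anti-cortisol antibody (typically 2 h), with emission ratio 665/615 calibrated to cortisol concentration.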

T1 sequence (P28845 whole entry): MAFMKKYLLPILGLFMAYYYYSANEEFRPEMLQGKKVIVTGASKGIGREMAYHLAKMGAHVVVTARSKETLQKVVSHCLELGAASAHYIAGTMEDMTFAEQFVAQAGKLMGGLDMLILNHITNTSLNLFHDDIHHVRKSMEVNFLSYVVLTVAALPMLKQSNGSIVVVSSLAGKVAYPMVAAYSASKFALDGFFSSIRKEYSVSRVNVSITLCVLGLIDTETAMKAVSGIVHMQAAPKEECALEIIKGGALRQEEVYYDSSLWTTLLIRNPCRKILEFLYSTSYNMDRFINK

For `O=C(c1ccc2nc[nH]c2c1)N1CCC2(C(=O)O)CC1Cc1ccc(O)cc12` (stereo not drawn) [Example 213, 3-(3H-Benzoimidazole-5-carbonyl)-8-hydroxy-2,3,4,5-tetrahydro-1H-2,6-methano-benzo[d]azocine-6-carboxylic acid], the half-inhibitory concentration (IC50) (as a rule, the concentration needed to halve the response being measured) stood at 2970 nM.
The compound `NC(=O)C12CCN(C(=O)c3ccc4nc[nH]c4c3)C(Cc3ccc(O)cc31)C2` (stereo not drawn) [Example 214, 3-(3H-Benzoimidazole-5-carbonyl)-8-hydroxy-2,3,4,5-tetrahydro-1H-2,6-methano-benzo[d]azocine-6-carboxylic acid amide] returned an IC50 of 5710 nM.
For `Cc1cc(C(=O)N2CC[C@@]3(C)c4cccc(O)c4C[C@@H]2C3(C)C)n(C)n1` [Example 215, (2,5-Dimethyl-2H-pyrazol-3-yl)-[(2R,6S)-10-hydroxy-6,11,11-trimethyl-1,2,5,6-tetrahydro-4H-2,6-methano-benzo[d]azocin-3-yl]-methanone] the value was 1730 nM; for `CC1(C)[C@H]2Cc3c(O)cccc3[C@]1(C)CCN2C(=O)c1ccnn1-c1ccccc1` [Example 216, [(2R,6S)-10-Hydroxy-6,11,11-trimethyl-1,2,5,6-tetrahydro-4H-2,6-methano-benzo[d]azocin-3-yl]-(2-phenyl-2H-pyrazol-3-yl)-methanone], 1720 nM; for `CC1(C)[C@H]2Cc3c(O)cccc3[C@]1(C)CCN2C(=O)c1csc2ccccc12` [Example 217, Benzo[b]thiophen-3-yl-[(2R,6S)-10-hydroxy-6,11,11-trimethyl-1,2,5,6-tetrahydro-4H-2,6-methano-benzo[d]azocin-3-yl]-methanone], 410 nM.
The figure for `CC1(C)[C@H]2Cc3c(O)cccc3[C@]1(C)CCN2C(=O)c1cncn1-c1ccccc1` [Example 218, [(2R,6S)-10-Hydroxy-6,11,11-trimethyl-1,2,5,6-tetrahydro-4H-2,6-methano-benzo[d]azocin-3-yl]-(3-phenyl-3H-imidazol-4-yl)-methanone] is 2710 nM; for `CC1(C)[C@H]2Cc3c(O)cccc3[C@]1(C)CCN2C(=O)c1n[nH]c2c1CCCC2` [Example 219, [(2R,6S)-10-Hydroxy-6,11,11-trimethyl-1,2,5,6-tetrahydro-4H-2,6-methano-benzo[d]azocin-3-yl]-(4,5,6,7-tetrahydro-1H-indazol-3-yl)-methanone] it is 160 nM.
As for `CC1(C)[C@H]2Cc3c(O)cccc3[C@]1(C)CCN2C(=O)c1n[nH]c2c1CCC2` [Example 220, [(2R,6S)-10-Hydroxy-6,11,11-trimethyl-1,2,5,6-tetrahydro-4H-2,6-methano-benzo[d]azocin-3-yl]-(1,4,5,6-tetrahydro-cyclopentapyrazol-3-yl)-methanone], the IC50 was 549 nM.
In the case of `CC1(C)[C@H]2Cc3c(O)cccc3[C@]1(C)CCN2C(=O)c1cc(-c2ccccc2)n[nH]1` [Example 221, [(2R,6S)-10-Hydroxy-6,11,11-trimethyl-1,2,5,6-tetrahydro-4H-2,6-methano-benzo[d]azocin-3-yl]-(5-phenyl-2H-pyrazol-3-yl)-methanone], the IC50 came to 2430 nM.
Compound `CCn1cc(C(=O)N2CC[C@@]3(C)c4cccc(O)c4C[C@@H]2C3(C)C)c2ccccc21` [Example 222, (1-Ethyl-1H-indol-3-yl)-[(2R,6S)-10-hydroxy-6,11,11-trimethyl-1,2,5,6-tetrahydro-4H-2,6-methano-benzo[d]azocin-3-yl]-methanone] yielded an IC50 of 124 nM.
Consider `C[C@@H]1[C@H]2Cc3cc(C#N)c(O)cc3[C@]1(C)CCN2C(=O)c1ccc2nc[nH]c2c1` [Example 223, (2R,6R,11S)-3-(3H-Benzoimidazole-5-carbonyl)-8-hydroxy-6,11-dimethyl-1,2,3,4,5,6-hexahydro-2,6-methano-benzo[d]azocine-9-carbonitrile], for which the 50% inhibitory concentration (IC50) worked out at 106 nM.
For `C[C@@H]1[C@H]2Cc3cc4nc[nH]c4cc3[C@]1(C)CCN2C(=O)c1ccc2nc[nH]c2c1` [Example 224, (3H-Benzoimidazol-5-yl)-[(6R,10R,12S)-5,6,7,8,9,10-hexahydro-10,12-dimethyl-6,10-methano-1H-imidazo[5,4-i][3]benzazocin-7-yl]-methanone] the value was 21 nM; for `Cc1cc(C(=O)N2CC[C@@]3(C)c4cccc(O)c4C[C@@H]2C3(C)C)cc2nc[nH]c12` [Example 225, [(2R,6S)-10-Hydroxy-6,11,11-trimethyl-1,2,5,6-tetrahydro-4H-2,6-methano-benzo[d]azocin-3-yl]-(7-methyl-1H-benzoimidazol-5-yl)-methanone], 98 nM.
As to `N#CC12CCN(C(=O)c3ccc4nc[nH]c4c3)C(Cc3ccc(O)cc31)C2` (stereo not drawn) [Example 226, 3-(3H-Benzoimidazole-5-carbonyl)-8-hydroxy-2,3,4,5-tetrahydro-1H-2,6-methano-benzo[d]azocine-6-carbonitrile], the IC50 came out at 1410 nM.
The figure for `C[C@@H]1[C@H]2Cc3cc(C#N)ccc3[C@]1(C)CCN2C(=O)c1ccc2nc[nH]c2c1` [Example 227, (2R,6R,11S)-3-(3H-Benzoimidazole-5-carbonyl)-6,11-dimethyl-1,2,3,4,5,6-hexahydro-2,6-methano-benzo[d]azocine-9-carbonitrile] is 25 nM.
The figure for `C[C@@H]1[C@H]2Cc3ccc(-c4nnn[nH]4)cc3[C@]1(C)CCN2C(=O)c1ccc2nc[nH]c2c1` [Example 228, (2R,6R,11S)-(3H-Benzoimidazol-5-yl)-[6,11-dimethyl-8-(1H-tetrazol-5-yl)-1,2,5,6-tetrahydro-4H-2,6-methano-benzo[d]azocin-3-yl]-methanone] is 236 nM.
For `CC(C)(O)c1ccc2c(c1)[C@]1(C)CCN(C(=O)c3ccc4nc[nH]c4c3)[C@H](C2)C1(C)C` [Example 229, (3H-Benzoimidazol-5-yl)-[(2R,6S)-8-(1-hydroxy-1-methyl-ethyl)-6,11,11-trimethyl-1,2,5,6-tetrahydro-4H-2,6-methano-benzo[d]azocin-3-yl]-methanone] the value was 68 nM; for `Cc1nc(-c2ccc3c(c2)[C@]2(C)CCN(C(=O)c4ccc5nc[nH]c5c4)[C@H](C3)[C@H]2C)no1` [Example 231, (3H-Benzoimidazol-5-yl)-[(2R,6R,11S)-6,11-dimethyl-8-(5-methyl-[1,2,4]oxadiazol-3-yl)-1,2,5,6-tetrahydro-4H-2,6-methano-benzo[d]azocin-3-yl]-methanone], 146 nM; for `C[C@@H]1[C@H]2Cc3ccc(-c4ncon4)cc3[C@]1(C)CCN2C(=O)c1ccc2nc[nH]c2c1` [Example 232, (3H-Benzoimidazol-5-yl)-[(2R,6R,11S)-6,11-dimethyl-8-[1,2,4]oxadiazol-3-yl-1,2,5,6-tetrahydro-4H-2,6-methano-benzo[d]azocin-3-yl]-methanone], 132 nM.
The compound `CC1(C)[C@H]2Cc3ccc(S(C)(=O)=O)cc3[C@]1(C)CCN2C(=O)c1ccc2nc[nH]c2c1` [Example 233, (3H-Benzoimidazol-5-yl)-[(2R,6S)-8-methanesulfonyl-6,11,11-trimethyl-1,2,5,6-tetrahydro-4H-2,6-methano-benzo[d]azocin-3-yl)-methanone] gave a half-maximal inhibitory concentration (IC50) of 144 nM.
For `CC1(C)[C@H]2Cc3c(cccc3S(C)(=O)=O)[C@]1(C)CCN2C(=O)c1ccc2nc[nH]c2c1` [Example 234, (3H-Benzoimidazol-5-yl)-[(2R,6S)-10-methanesulfonyl-6,11,11-trimethyl-1,2,5,6-tetrahydro-4H-2,6-methano-benzo[d]azocin-3-yl)-methanone] the value was 3120 nM.

The values above are taken from patent publication US8859580B2 (Boehringer Ingelheim International GmbH, priority 2007, dated 2014).
